Results on 4 substances are retold here after patent US20150031743A1, “CELL TRANSFECTING FORMULATIONS OF SMALL INTERFERING RNA, RELATED COMPOSITIONS AND METHODS OF MAKING AND USE” (NOVARTIS VACCINES AND DIAGNOSTICS, INC., priority 2003, published 2015).

One test has as its system Akt1 mRNA. Kind of test: siRNA inhibition of Akt1 mRNA in MDA435 breast cancer cells (Example 1, FIG. 2). The format is cell-based. Particulars: presence or absence of serum, Akt1 message normalized to average of HPRT and GUSB. On the procedure: (§1) For each transfection mixture (which are examples of compositions in accordance with the present invention), a lipitoid or lipitoid/cholesteroid combination delivery vehicle was prepared to a working concentration of 0.5 mM in water and mixed to yield a uniform solution. The siRNA was prepared to a working concentration of 20 μM in buffer supplied with the siRNAs. In this example, the siRNAs were for Akt1 mRNA and had the sequence […] (SEQ ID No: 1) with two 2′ O-methyl UU (RNA) nucleotide 3′-overhangs and phosphodiester links throughout (available from Integrated DNA Technologies). The siRNA was diluted in OptiMEM™ (Gibco/BRL), in a microfuge tube, to 1 μM, or approximately 15 μg oligo/ml of OptiMEM™. In a separate microfuge tube, vehicle, typically in the amount of about 3.75 nmol vehicle/100 pmol siRNA, was diluted into the same volume of OptiMEM™ used to dilute the siRNA. […] Note that the exact ratio of siRNA to vehicle must be determined empirically for each cell type, but generally is about this amount. The diluted siRNA was immediately added to the diluted vehicle and mixed by pipetting up and down. The mixture was allowed to incubate at room temperature for 10 minutes.
Cells were plated on tissue culture dishes one day in advance of transfection, in growth media with serum, to yield a density at transfection of 60-90%. […]

The next test relates to firefly luciferase. Kind of test: Loss of luciferase activity after siRNA transfection, Promega Dual-Luciferase Reporter Assay (Example 2, FIG. 3). The format is cell-based. Particulars: MDA231 stably expressing luciferase, control non-transfected cell line. On the procedure:
as §1
Cells were plated on tissue culture dishes one day in advance of transfection, in growth media with serum, to yield a density at transfection of 60-90%. The siRNA/vehicle mixture was added to the cells immediately after mixing and incubation, to a final concentration of 50-100 nM siRNA in half the normal growth medium volume. Cells were incubated with the transfection mixture at 37° C., 5% CO2 for 4-24 hours. […]
Transfection mixtures were prepared using siRNA against firefly luciferase (CGUACGCGGAAUACUUCGA (SEQ ID No: 2); from Elbashir et al., Nature, 411, 494 (2001)) and several different delivery vehicles in accordance with the present invention as described herein (L1, L2, L1/C1, L4 1L1/3C1) substantially as described in Example 1. Luciferase activity was quantified with the Promega Dual-Luciferase Reporter Assay System according to package directions. […]

For DMPE(NaeNiaNia)3 [Lipitoid L2], the “Akt1 expression after transfection of siRNA directed against Akt1 mRNA” value with Akt1 mRNA is on record as “loss of Akt1 expression”. Further, the “luciferase activity after transfection of siRNA against luciferase” value (shortened to “luciferase activity after transfection”) in the test on firefly luciferase is “substantially reduced”.
Turning to DMPE(NaeNmpeNmpe)3 [Lipitoid L1], the “luciferase activity after transfection” value in the test with firefly luciferase is recorded as “substantially reduced”.
In the case of NddNol(NaeNmpeNmpe)3 [Lipitoid L4], the “luciferase activity after transfection” value with firefly luciferase is “substantially reduced”.
For NtdNhd(NaeNmpeNmpe)3 [Lipitoid L3], the “Akt1 expression after transfection of siRNA directed against Akt1 mRNA” value in the test with Akt1 mRNA is given as “loss of Akt1 expression”.
